# Experimental data published in publication PMC7072973, “Differential Signaling Profiles of MC4R Mutations with Three Different Ligands” (International Journal of Molecular Sciences, 2020).
# Entries after “also recorded” stand apart in the source; their conditions may differ. Read-outs that look alike come from different tables or passages of the source.
# Legend:
# MC4R WT [1] = assay: GS signaling (cAMP) with AgRP co-stimulation, MC4R WT; type: cell-based, human
# Protocol: (§5) Therefore, in addition to cAMP measurements to assess GS activation in the absence and presence of 100 nM AgRP, we measured Gi/o activation via determination of second messenger (cAMP) modulation by adenylyl cyclase (AC) in the absence or presence of pertussis toxin (PTX) pretreatment.
# (§6) GS and Gi coupling to the MC4R were determined using the AlphaScreen™ assay (Perkin Elmer Life Science, Boston, MA, USA) performed according to the manufacturer’s protocol and described elsewhere [68]. […] Determination of Gi coupling was investigated by pretreatment with 50 µg/mL PTX 18 h before stimulation. All stimulations were performed at 37 °C and 5% CO2. Incubation was stopped by removing the compounds and lysing the cells in lysis buffer containing IBMX for 1.5–2 h at 4 °C on a shaking platform.
# (§7) The determination of cAMP using the AlphaScreen™ assay is a competitive immune assay based on antibody-coupled acceptor beads that bind cAMP and streptavidin-coupled donor beads that bind to a biotinylated cAMP probe. Excitement of the donor bead leads to the conversion of ambient oxygen to a singlet state. […] Absolute amounts of cAMP are determined by the simultaneous measurement of a cAMP standard. The plate reader (Mithras 940 LB)) was used for the read out, at 565 nm.
# MC4R WT [2] = molecular target: T1, MC4R WT (Homo sapiens, UniProt P32245); settings: HEK293, cAMP, 40 min, IBMX, mean ± SEM, 3 to 7 experiments in triplicates
# Target sequence in this assay (P32245 whole entry): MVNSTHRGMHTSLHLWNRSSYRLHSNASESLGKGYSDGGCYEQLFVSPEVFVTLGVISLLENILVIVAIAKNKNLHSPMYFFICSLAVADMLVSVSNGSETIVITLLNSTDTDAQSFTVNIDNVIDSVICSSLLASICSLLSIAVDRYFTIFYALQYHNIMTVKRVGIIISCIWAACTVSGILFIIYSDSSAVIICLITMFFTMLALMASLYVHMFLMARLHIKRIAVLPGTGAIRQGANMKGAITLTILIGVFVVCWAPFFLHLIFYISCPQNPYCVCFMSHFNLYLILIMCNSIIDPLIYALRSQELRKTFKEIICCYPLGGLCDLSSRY
# Protocol: as §6, §7
# (§8) Concentration–response curves of each experiment were analyzed by fitting a non-linear regression model for sigmoidal response in Graph Pad Prism 6 (GraphPad Software Inc., La Jolla, CA, USA) to determine potency (EC50 values). […] Emax is the maximal response (efficiency) of the mutation, which was determined from the concentration–response curves. […]
# MC4R V103I [3] = molecular target: T2, MC4R V103I (Homo sapiens, UniProt P32245, V103I)
# Target sequence in this assay (P32245 whole entry V103I): as the sequence (P32245 whole entry) above, with V103I counted along it
# Protocol: as §6
# The determination of cAMP using the AlphaScreen™ assay is a competitive immune assay based on antibody-coupled acceptor beads that bind cAMP and streptavidin-coupled donor beads that bind to a biotinylated cAMP probe. Excitement of the donor bead leads to the conversion of ambient oxygen to a singlet state. In close proximity of donor and acceptor beads through binding the biotinylated probe, the acceptor reacts with the singlet molecule and emits light. Absolute amounts of cAMP are determined by the simultaneous measurement of a cAMP standard. The plate reader (Mithras 940 LB)) was used for the read out, at 565 nm.
# Concentration–response curves of each experiment were analyzed by fitting a non-linear regression model for sigmoidal response in Graph Pad Prism 6 (GraphPad Software Inc., La Jolla, CA, USA) to determine potency (EC50 values). For mutations that had EC50 values outside of concentration tested, it was set to the appropriate highest concentration tested. Signaling bias analysis was performed as described by Kenakin (2017) [69] using the formula (4) Δlog(Emax/EC50) = log(Emaxtest/EC50 test)−log(Emaxref/EC50 ref) with test referring to the tested receptor mutation and ref being reference (MC4R WT). Emax is the maximal response (efficiency) of the mutation, which was determined from the concentration–response curves. Where no Emax could be determined from incomplete curves (e.g., in case of AgRP co-stimulation), the response of the maximal concentration was substituted as has been described by Winpenny et al. (2016) [70].
# MC4R H158R [4] = molecular target: T3, MC4R H158R (Homo sapiens, UniProt P32245, H158R)
# Target sequence in this assay (P32245 whole entry H158R): as the sequence (P32245 whole entry) above, with H158R counted along it
# Protocol: as §6, §7, §8
# MC4R WT [5] = molecular target: T1, MC4R WT; settings: HEK293, PTX-sensitive cAMP, mean ± SEM, 3 to 7 experiments in triplicates
# Target sequence in this assay (P32245 whole entry): as the sequence (P32245 whole entry) above
# Protocol: (§9) Therefore, in addition to cAMP measurements to assess GS activation in the absence and presence of 100 nM AgRP, we measured Gi/o activation via determination of second messenger (cAMP) modulation by adenylyl cyclase (AC) in the absence or presence of pertussis toxin (PTX) pretreatment. In the presence of PTX, which locks the Gαi/o subunit in its GDP-bound inactivated state, the G protein is no longer able to inhibit the AC to form cAMP [48]. Although this is an indirect way of measuring the contributions from Gi/o signaling to the total amount of intracellular cAMP, we will refer to these measurements as Gi/o coupling in order to simplify the results part.
# (§10) GS and Gi coupling to the MC4R were determined using the AlphaScreen™ assay (Perkin Elmer Life Science, Boston, MA, USA) performed according to the manufacturer’s protocol and described elsewhere [68]. […] Determination of Gi coupling was investigated by pretreatment with 50 µg/mL PTX 18 h before stimulation. […]
# (§11) The determination of cAMP using the AlphaScreen™ assay is a competitive immune assay based on antibody-coupled acceptor beads that bind cAMP and streptavidin-coupled donor beads that bind to a biotinylated cAMP probe. […] Absolute amounts of cAMP are determined by the simultaneous measurement of a cAMP standard. The plate reader (Mithras 940 LB)) was used for the read out, at 565 nm. […]
# MC4R V103I [6] = molecular target: T2, MC4R V103I; remark: listed apart in the source
# Target sequence in this assay (P32245 whole entry V103I): as the sequence (P32245 whole entry) above, with V103I counted along it
# Protocol: as §9, §10, §11
# MC4R H158R [7] = molecular target: T3, MC4R H158R; remark: listed apart in the source
# Target sequence in this assay (P32245 whole entry H158R): as the sequence (P32245 whole entry) above, with H158R counted along it
# Protocol: as §9, §10, §11
# MC4R WT [8] = molecular target: T1, MC4R WT; settings: HEK293, NFAT-luc, 6 h, mean ± SEM, 3 to 7 experiments in triplicates
# Target sequence in this assay (P32245 whole entry): as the sequence (P32245 whole entry) above
# Protocol: (§12) Activation of PLC, RhoA and ERK1/2 phosphorylation was determined using luciferase-based reporter gene assays that utilize responsive elements in the promotor region of the gene encoding a firefly luciferase. For PLC activation, the NFAT responsive element (NFAT-luc, pGL4.33) was co-transfected with the receptor mutations. Similarly, co-transfections with SRF responsive element (SRF-luc, pGL4.33, Promega, Mannheim, Germany) for RhoA activation and Serum response element (SRE-luc, pGL3.4, Promega, Mannheim, Germany) for ERK1/2 phosphorylation were performed. […]
# (§13) Measurement of luciferase activity provided information about the activation of the respective second messenger by transferring 10 µL lysate into a white opaque 96-well plate. Injection of 40 µL firefly luciferase substrate (Promega, Mannheim, Germany) and measurement of luminescence was performed with a plate reader (Mithras LB 940).
# as §8
# MC4R V103I [9] = molecular target: T2, MC4R V103I; remark: listed apart in the source
# Target sequence in this assay (P32245 whole entry V103I): as the sequence (P32245 whole entry) above, with V103I counted along it
# Protocol: as §12, §13, §8
# MC4R H158R [10] = molecular target: T3, MC4R H158R; remark: listed apart in the source
# Target sequence in this assay (P32245 whole entry H158R): as the sequence (P32245 whole entry) above, with H158R counted along it
# Protocol: as §12, §13, §8
# MC4R WT [11] = molecular target: T1, MC4R WT; settings: HEK293, SRF-luc, 6 h, mean ± SEM, 3 to 7 experiments in triplicates
# Target sequence in this assay (P32245 whole entry): as the sequence (P32245 whole entry) above
# Protocol: as §12, §13, §8
# MC4R V103I [12] = molecular target: T2, MC4R V103I; remark: listed apart in the source
# Target sequence in this assay (P32245 whole entry V103I): as the sequence (P32245 whole entry) above, with V103I counted along it
# Protocol: as §12, §13, §8
# MC4R H158R [13] = molecular target: T3, MC4R H158R; remark: listed apart in the source
# Target sequence in this assay (P32245 whole entry H158R): as the sequence (P32245 whole entry) above, with H158R counted along it
# Protocol: as §12, §13, §8
# MC4R WT [14] = molecular target: T1, MC4R WT; settings: HEK293, SRE-luc, 6 h, mean ± SEM, 3 to 7 experiments in triplicates
# Target sequence in this assay (P32245 whole entry): as the sequence (P32245 whole entry) above
# Protocol: as §12, §13, §8
# MC4R V103I [15] = molecular target: T2, MC4R V103I; remark: listed apart in the source
# Target sequence in this assay (P32245 whole entry V103I): as the sequence (P32245 whole entry) above, with V103I counted along it
# Protocol: as §12, §13, §8
# MC4R H158R [16] = molecular target: T3, MC4R H158R; remark: listed apart in the source
# Target sequence in this assay (P32245 whole entry H158R): as the sequence (P32245 whole entry) above, with H158R counted along it
# Protocol: as §12, §13, §8
# MC4R WT [17] = molecular target: T1, MC4R WT; assay: β-arrestin2 recruitment (NanoBRET), MC4R WT; type: cell-based; set-up: expressed in transfected cells; host or cells: HEK293; settings: HEK293, β-arrestin2, 5 min, mean ± SEM, 3 to 7 experiments in triplicates
# Protocol: (§1) A total of 16–20 h after transfection in 6-well plates, cells were detached, and cell number was adjusted to 2.2 × 10^5 cells/mL in Opti-MEM without phenol red supplemented with 4% FBS. Cells were divided into two pools, adding either the acceptor NanoBRET™ Ligand 618 (1 µL/mL cells of 0.1 mM solution) or the same amount of DMSO as background control. After reseeding 90 µL cell suspension/well into a white 96-well plates, incubation was continued for 4–6 h.
# (§2) For measurements, 25 µL of NanoBRET™ substrate was injected using a plate reader (Mithras LB 940). Donor and acceptor emission were measured at 460 nm and 610 nm, respectively, and the BRET ratio was calculated by dividing acceptor emission by donor emission:(1) BRET ratio =emissionacceptor/emissiondonor
# (§3) The ratio was corrected for background bleed through by subtracting of the background ratio (no acceptor DMSO control) and conversion to milliBRET units (mBU):(2) corrected BRET ratio [mBU]=(BRET ratiosample−BRET rationo acceptor control)×1000
# (§4) To calculate the difference between stimulated and basal interaction, the NET BRET was acquired using the formula:(3) NET BRET = corrected BRET ratiostim− corrected BRET ratiobasal
# Target sequence in this assay (P32245 whole entry): as the sequence (P32245 whole entry) above
# Target sequence in this assay (P29067 whole entry partner): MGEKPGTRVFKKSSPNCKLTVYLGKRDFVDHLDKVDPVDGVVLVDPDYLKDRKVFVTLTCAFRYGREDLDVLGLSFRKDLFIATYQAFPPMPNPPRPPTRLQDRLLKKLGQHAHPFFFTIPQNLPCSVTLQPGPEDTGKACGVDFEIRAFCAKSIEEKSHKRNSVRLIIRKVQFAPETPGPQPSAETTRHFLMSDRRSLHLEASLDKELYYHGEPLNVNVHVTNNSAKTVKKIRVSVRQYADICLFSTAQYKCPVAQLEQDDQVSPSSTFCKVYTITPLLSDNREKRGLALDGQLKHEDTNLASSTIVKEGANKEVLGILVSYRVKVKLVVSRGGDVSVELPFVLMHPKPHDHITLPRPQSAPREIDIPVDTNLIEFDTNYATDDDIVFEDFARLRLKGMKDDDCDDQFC
# MC4R H158R [18] = molecular target: T3, MC4R H158R; type: cell-based; set-up: expressed in transfected cells; host or cells: HEK293
# Protocol: as §1, §2, §3, §4
# Target sequence in this assay (P32245 whole entry H158R): as the sequence (P32245 whole entry) above, with H158R counted along it
# Target sequence in this assay (P29067 whole entry partner): as the sequence (P29067 whole entry partner) above
# MC4R V103I [19] = molecular target: T2, MC4R V103I; type: cell-based; set-up: expressed in transfected cells; host or cells: HEK293; settings: HEK293, β-arrestin2, 5 min, mean ± SEM, 3 to 7 experiments in triplicates
# Protocol: as §1, §2, §3, §4
# Target sequence in this assay (P32245 whole entry V103I): as the sequence (P32245 whole entry) above, with V103I counted along it
# Target sequence in this assay (P29067 whole entry partner): as the sequence (P29067 whole entry partner) above
# MC4R V103I [20] = settings: agonist α-MSH, 100 nM AgRP
# MC4R H158R [21] = settings: 100 nM AgRP
# MC4R = settings: cited from earlier work
# Description: The MC4R signals mainly via activation of the stimulating G protein GS, which leads to an increase in intracellular cyclic adenosine-monophosphate (cAMP). In recent years, more and more studies provided evidence that the MC4R is able to couple to a variety of signaling pathways, such as extracellular regulated kinase (ERK) activation, and to other G proteins, such as Gi/o, Gq/11 and G12/13 [10, 11, 12, 13]. These pathways might also be involved in the anorexigenic effect of the activated MC4R [14].
# MC4R V103I [22] = settings: synthetic agonist MTII; cited from earlier work
# [23] = tested on: all tested MC4R mutations; assay: GS signaling (cAMP) with AgRP, all tested MC4R mutations; settings: all tested MC4R mutations and ligands; Figure S1
# Protocol: as §5, §6, §7
# [24] = HEK293, cAMP, 40 min, IBMX, mean ± SEM, 3 to 7 experiments in triplicates
# [25] = HEK293, PTX-sensitive cAMP, mean ± SEM, 3 to 7 experiments in triplicates
# [26] = HEK293, NFAT-luc, 6 h, mean ± SEM, 3 to 7 experiments in triplicates
# [27] = HEK293, SRF-luc, 6 h, mean ± SEM, 3 to 7 experiments in triplicates
# [28] = HEK293, SRE-luc, 6 h, mean ± SEM, 3 to 7 experiments in triplicates
compound,measurement,setting,value
"CSCC[C@H](NC(=O)[C@H](CCCNC(=N)N)NC(=O)[C@H](Cc1ccc(O)cc1)NC(=O)[C@@H]1CCCN1C(=O)CNC(=O)[C@H](CCC(=O)O)NC(=O)[C@H](CC(=O)O)NC(=O)[C@H](CCCCN)NC(=O)[C@H](CCCCN)NC(=O)[C@H](CCC(=O)O)NC(=O)[C@H](C)N)C(=O)N[C@@H](CCC(=O)O)C(=O)N[C@@H](Cc1c[nH]cn1)C(=O)N[C@@H](Cc1ccccc1)C(=O)N[C@@H](CCCNC(=N)N)C(=O)N[C@@H](Cc1c[nH]c2ccccc12)C(=O)NCC(=O)N[C@@H](CO)C(=O)N1CCC[C@H]1C(=O)N1CCC[C@H]1C(=O)N[C@@H](CCCCN)C(=O)N[C@@H](CC(=O)O)C(=O)O [β-MSH, β-melanocyte stimulating hormone]",GS signaling in the presence of 100 nM AgRP,MC4R WT [1],not as strongly affected compared to the one of α-MSH
same,Emax,MC4R WT [2],10.05 fold over WT basal
same,GS signaling compared to WT,MC4R V103I [3],reduced (though not significantly); also recorded: tendency towards low GS signaling
same,Emax,MC4R V103I [3]; [24],8.69 fold over WT basal
same,GS signaling compared to WT,MC4R H158R [4],increased GS and Gq/11 signaling
same,Emax,MC4R H158R [4]; [24],14.85 fold over WT basal
same,Emax,MC4R WT [5],26.86 fold over WT basal
same,Gi/o coupling compared to WT,MC4R V103I [6],strong positive bias towards Gi/o coupling
same,Emax,MC4R V103I [6]; [25],16.65 fold over WT basal
same,Gi/o coupling compared to WT,MC4R H158R [7],strong bias towards Gi/o signaling
same,Emax,MC4R H158R [7]; [25],38.55 fold over WT basal
same,Emax,MC4R WT [8],6.58 fold over WT basal
same,Gq/11 (PLC) activation compared to WT,MC4R V103I [9],increased Gq/11 coupling
same,Emax,MC4R V103I [9]; [26],14.65 fold over WT basal
same,Gq/11 (PLC) activation compared to WT,MC4R H158R [10],increased GS and Gq/11 signaling
same,Emax,MC4R H158R [10]; [26],10.40 fold over WT basal
same,Emax,MC4R WT [11],2.40 fold over WT basal
same,G12/13 (RhoA) activation compared to WT,MC4R V103I [12],"strong positive bias towards Gi/o coupling, RhoA activation via G12/13"
same,Emax,MC4R V103I [12]; [27],2.29 fold over WT basal
same,G12/13 (RhoA) activation compared to WT,MC4R H158R [13],WT-like activity in G12/13 and β-arrestin2 recruitment
same,Emax,MC4R H158R [13]; [27],2.18 fold over WT basal
same,Emax,MC4R WT [14],4.94 fold over WT basal
same,ERK phosphorylation compared to WT,MC4R V103I [15],"tendency towards an ERK signaling bias, which was not significant"
same,Emax,MC4R V103I [15]; [28],5.14 fold over WT basal
same,ERK phosphorylation compared to WT,MC4R H158R [16],augmented ERK phosphorylation
same,Emax,MC4R H158R [16]; [28],5.55 fold over WT basal
same,Emax,MC4R WT [17],1.93 fold over WT basal
same,β-arrestin2 recruitment compared to WT,MC4R H158R [18],WT-like activity in G12/13 and β-arrestin2 recruitment
same,Emax,MC4R V103I [19],1.35 fold over WT basal
"Agouti-related peptide (SSRRCVRLHESCLGQQVPCCDPCATCYCRFFNAFCYCRKLGTAMNPCSRT; UniProt O00253 83-132, looked up) [AgRP]",antagonistic effect of AgRP,MC4R V103I [20],"tendency towards a reduced antagonist effect of AgRP, which was, however, not significant; also recorded: tendency towards a decreased antagonistic effect"
same,antagonistic effect of AgRP,MC4R H158R [21]; agonist α-MSH,loss-of-antagonist effect
same,antagonistic effect of AgRP,MC4R H158R [21]; agonist β-MSH,loses its antagonistic effect for this mutation
same,mode of action at MC4R,"MC4R; ref 15, 17",inverse agonist
same,mode of action at MC4R,"MC4R; ref 15, 18",competitive antagonist
same,AgRP antagonistic potency,MC4R V103I [22],modestly reduced AgRP antagonistic potency
same,effect of AgRP on GS signaling,[23],decreased GS signaling for all tested MC4R mutations and ligands
